In PubChem BioAssay (NCI):
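Cells were grown in 96-well plates and exposed to each compound for 48 hours at five concentrations; endpoints were interpolated linearly between bracketing concentrations, or set to the highest concentration if not reached. GI50 is the concentration that inhibits growth by half. At the TGI there is no net growth.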

How the values were obtained:
Assay in all cases: NCI anticancer screen, dose series, 48 h
A549 NSCLC = tested on: A549 NSCLC
IGROV1 ovarian = tested on: IGROV1 ovarian
LOX IMVI melanoma = tested on: LOX IMVI melanoma
MOLT-4 leukemia = tested on: MOLT-4 leukemia
NCI-H23 lung = tested on: NCI-H23 lung
NCI-H522 lung = tested on: NCI-H522 lung
SK-MEL-2 melanoma = tested on: SK-MEL-2 melanoma
SK-OV-3 ovarian = tested on: SK-OV-3 ovarian
U251 CNS = tested on: U251 CNS
UO-31 renal = tested on: UO-31 renal

Compound	GI50 (A549 NSCLC) [µM]	TGI (A549 NSCLC) [µM]	GI50 (IGROV1 ovarian) [µM]	TGI (IGROV1 ovarian) [µM]	GI50 (LOX IMVI melanoma) [µM]	TGI (LOX IMVI melanoma) [µM]	GI50 (MOLT-4 leukemia) [µM]	TGI (MOLT-4 leukemia) [µM]	GI50 (NCI-H23 lung) [µM]	TGI (NCI-H23 lung) [µM]	GI50 (NCI-H522 lung) [µM]	TGI (NCI-H522 lung) [µM]	GI50 (SK-MEL-2 melanoma) [µM]	TGI (SK-MEL-2 melanoma) [µM]	GI50 (SK-OV-3 ovarian) [µM]	TGI (SK-OV-3 ovarian) [µM]	GI50 (U251 CNS) [µM]	TGI (U251 CNS) [µM]	GI50 (UO-31 renal) [µM]	TGI (UO-31 renal) [µM]
O=C1OC(=O)C(c2c[nH]c3ccccc23)=C1c1c[nH]c2ccccc12	> 25	> 25	> 25	> 25	> 25	> 25	> 25	> 25	> 25	> 25	> 25	> 25	> 25	> 25	> 25	> 25	> 25	> 25	8.73	> 25
COC(=O)/C=C/C=C(c1ccccc1)c1ccccc1	5.02	> 100			5.87	21.7	14.2	> 100	16.3	> 100	5.88	78.1			5.93	48.9	3.6	29.3	3.27	37.8
CNC(=O)OCc1nc(SC2CCCCO2)n(C)c1COC(=O)NC (stereo not drawn)		> 100		> 100		> 100		> 100		> 100		> 100		> 100		> 100		> 100		> 100
O=C(c1ccccc1)C1N=NCC1c1ccc([N+](=O)[O-])cc1 (stereo not drawn)		> 100				> 100		72.9		> 100				> 100		> 100		> 100		> 100
CCCN=Cc1cc(Cc2ccc(O)c(C=NCCC)c2)ccc1O		32.3		37.2		13.4		3.71		26.2		45.1		9.59		82.4		9.22		36.3
Nc1cc2cccc[n+]2c2cc(Cl)ccc12	56.3		71.6				4.22		13.2	53.6	11.8	33	0.0664	18.4			4.56	25.4	43.6	
NC(=S)N/N=C(/CC(=O)c1ccccc1)C(=O)Nc1ccc(Cl)c(Cl)c1		> 100		> 100		> 100		93.7		> 100		59.4		> 100		> 100		> 100		> 100
CNC(=O)n1ccc2cc(Oc3ccnc(NC(=O)c4ccc(C5CCN(CCO)CC5)cc4)c3)c(OCCOC)cc21	5.27	21.4	5.65	20.7	1.77	3.7	2.65	12.7	10.5	24.4	3.09	11	8.57	23.2	10.5	23.1	3.15	12.3	16.5	33.2
Cc1[c-]onc1C.Cc1[c-]onc1C.[Ag].[Ag].[NH-]S(=O)(=O)c1ccc(N=Nc2cc(N=Nc3ccc(S([NH-])(=O)=O)cc3)c3c(NC(=O)C(Cl)Cl)cccc3c2OC(=O)C(Cl)Cl)cc1	11	> 50	6.53	26.4	7.75	18.3	8.18	28.1	8.3	22.8	1.75	14	6.89	15.9	9.66	18.5	8.45	18.8	6.06	12.8
CCN(CC)c1ccc(C(=C2C=CC(=[N+](CC)Cc3cccc(S(=O)(=O)O)c3)C=C2)c2ccc(N(CC)Cc3cccc(S(=O)(=O)O)c3)cc2)cc1	4.28	> 100	13.3	> 100	4.84	> 100	11.1	> 89.7	5.14	80.2	7.88	> 79.2	10.5	> 92.2	5.04	27.1	3.58	> 100	16.3	> 91.9
COc1ccccc1NC(=O)C1=C(C)NC(C)=C(C(=O)Nc2ccccc2OC)C1c1ccccc1F		> 100		> 100		> 100		> 100		> 100				> 100		> 100		> 100		> 100
COC(=O)CCC(NC(=S)N/N=C(\C)c1nccs1)C(=O)OC (stereo not drawn)		> 100		> 100		> 100				> 100		78.4		> 100		> 100		> 100		> 100
CCCc1[nH]nc(CCC(=O)N(Cc2ccccc2)Cc2ccccc2)c1CC		> 100		> 100		> 100		> 100		> 100		> 100		> 100		> 100				> 100
CC/C=C\C=C/C(=O)N/C=C/CC1Cc2cccc(O)c2C(=O)O1 (stereo not drawn)	34.9	> 100	38	> 100	13.3	26.5	13.4	42.2	58.1	> 100	19.5	55.2	22.9	> 100	46.7	> 100	23.3	> 100	35.4	> 100
CCCC[C@H](NC(=O)[C@H]1CCCN1C)C(=O)N(C)[C@H](C[C@@H](OC(C)=O)c1nc(C(=O)N[C@@H](Cc2ccccc2)C[C@H](C)C(=O)OCC)cs1)C(C)C	0.0501	> 33.3	0.0157	> 33.3	0.0173	9.99	0.0258	15.5	0.0594	> 33.3	0.00341	0.0143	0.00613	8.71	0.0969	> 33.3	0.0144	> 33.3	0.209	> 33.3
